Source: US8716475B2, “2-aminopyrimidine modulators of the histamine H4 receptor” (Janssen Pharmaceutica NV, priority 2007, dated 2014)

Molecular target: T1, human H4 receptor (Homo sapiens, UniProt Q9H3N8)
T1 construct: expressed in transfected cells
Experiment: Binding Assay on Recombinant Human Histamine H4 Receptor
Conditions: Table 1; [3H] histamine competition binding, membranes of SK-N-MC cells transfected with human H4 receptor; average of results
Procedure: Binding Assay on Recombinant Human Histamine H4 Receptor.
Cell pellets from SK-N-MC cells stably or transiently transfected with human H4 receptor were used for the binding assays. Cell pellets were homogenized in 50 mM Tris/5 mM EDTA buffer and supernatants from an 800g spin were collected and recentrifuged at 30,000g for 30 min. Pellets were rehomogenized in 50 mM Tris/5 mM EDTA buffer. […] Compounds were tested in free base, hydrochloride salt, or trifluoroacetic acid form. Nonspecific binding was defined with 100 μM cold histamine. […] Membranes were harvested by rapid filtration using the 96 well Brandel system or a cell harvester using a Whatman GF/C filter or filter plates treated with 0.5% polyethylenimine (PEI), and washed 4 times with ice-cold 50 mM Tris/5 mM EDTA buffer. Filters were then dried, mixed with scintillant and radioactive counts were determined. […] Data marked with an asterisk (*) were obtained by the cell harvester method. Where activity is shown as greater than (>) a particular value, the value is the highest concentration tested.

SMILES	Ki
CNC1CN(c2cc(C3CCCC3)nc(N)n2)CC1O (stereo not drawn) [Example 5, trans-1-(2-Amino-6-cyclopentyl-pyrimidin-4-yl)-4-methylamino-pyrrolidin-3-ol]	30 nM
Nc1nc(Cc2ccccc2)cc(N2C[C@H]3CCCN[C@H]3C2)n1 [Example 65, (R,R)-4-Benzyl-6-(octahydro-pyrrolo[3,4-b]pyridin-6-yl)-pyrimidin-2-ylamine]	47 nM
Cc1nc(N)nc(N2C[C@@H]3C[C@H]2CN3)c1C [Example 32, (S,S)-4-(2,5-Diaza-bicyclo[2.2.1]hept-2-yl)-5,6-dimethyl-pyrimidin-2-ylamine]	> 10000 nM
Nc1nc(C2CCCCC2)cc(N2CC3CCNC3C2)n1 (stereo not drawn) [Example 54, 4-Cyclohexyl-6-(cis-hexahydro-pyrrolo[3,4-b]pyrrol-5-yl)-pyrimidin-2-ylamine]	2 nM
Nc1nc2c(c(N3C[C@H]4CCCN[C@H]4C3)n1)CCCC2 [Example 72, (R,R)-4-(Octahydro-pyrrolo[3,4-b]pyridin-6-yl)-5,6,7,8-tetrahydro-quinazolin-2-ylamine]	14 nM
CC(C)c1cc(N2CCC[C@H](N)C2)nc(N)n1 [Example 10, (S)-4-(3-Amino-piperidin-1-yl)-6-isopropyl-pyrimidin-2-ylamine]	159 nM
CC(C)c1cc(N2CC3CCCNC3C2)nc(N)n1 (stereo not drawn) [Example 19, 4-Isopropyl-6-(cis-octahydro-pyrrolo[3,4-b]pyridin-6-yl)-pyrimidin-2-ylamine]	8 nM
CCc1cc(N2C[C@H]3CCN[C@H]3C2)nc(N)n1 [Example 37, (R,R)-(4-Ethyl-6-hexahydro-pyrrolo[3,4-b]pyrrol-5-yl)-pyrimidin-2-ylamine]	27 nM
Cc1cc(N2CCN(C)CC2)nc(N)n1 [Example 22, 4-Methyl-6-(4-methyl-piperazin-1-yl)-pyrimidin-2-ylamine]	18 nM
Nc1nc2c(c(N3CC4CCCNC4C3)n1)CCCC2 (stereo not drawn) [Example 71, 4-(cis-Octahydro-pyrrolo[3,4-b]pyridin-6-yl)-5,6,7,8-tetrahydro-quinazolin-2-ylamine]	5 nM
Nc1nc(C2CCC2)cc(N2CC3CCNC3C2)n1 (stereo not drawn) [Example 47, 4-Cyclobutyl-6-(cis-hexahydro-pyrrolo[3,4-b]pyrrol-5-yl)-pyrimidin-2-ylamine]	11 nM
Nc1nc(C2CCCC2)cc(N2CC3CCCNC3C2)n1 (stereo not drawn) [Example 7, 4-Cyclopentyl-6-(cis-octahydro-pyrrolo[3,4-b]pyridin-6-yl)-pyrimidin-2-ylamine]	2 nM
Nc1nc(Cc2ccccc2)cc(N2CCNCC2)n1 [Example 62, 4-Benzyl-6-piperazin-1-yl-pyrimidin-2-ylamine]	30 nM
CN1CCN(c2cc(Cc3ccccc3)nc(N)n2)CC1 [Example 63, 4-Benzyl-6-(4-methyl-piperazin-1-yl)-pyrimidin-2-ylamine]	21 nM
CC(C)c1cc(N2C[C@H]3C[C@@H]2CN3)nc(N)n1 [Example 15, (R,R)-4-(2,5-Diaza-bicyclo[2.2.1]hept-2-yl)-6-isopropyl-pyrimidin-2-ylamine]	692 nM

Same assay, conditions: Table 2, data marked with an asterisk (*): obtained by the cell harvester method; [3H] histamine competition binding, SK-N-MC membranes

Ki	SMILES
564 nM	CN(CCN)c1cc(Cc2ccccc2)nc(N)n1 [Example 250, N^4-(2-Amino-ethyl)-6-benzyl-N^4-methyl-pyrimidine-2,4-diamine]
238 nM	CC(C)(C)c1cc(N2CC(N)C2)nc(N)n1 [Example 133, 4-(3-Amino-azetidin-1-yl)-6-tert-butyl-pyrimidin-2-ylamine]
412 nM	CN(CCN)c1cc(C(C)(C)C)nc(N)n1 [Example 131, N^4-(2-Amino-ethyl)-6-tert-butyl-N^4-methyl-pyrimidine-2,4-diamine]

Continued, compound first:

SMILES	Ki
CCCCc1nc(N)nc(N(C)CCN)c1OC [Example 109, N^4-(2-Amino-ethyl)-6-butyl-5-methoxy-N^4-methyl-pyrimidine-2,4-diamine]	517 nM
CC(C)c1cc(N2CCN(C)CC2)nc(N)n1 [Example 95, 4-Isopropyl-6-(4-methyl-piperazin-1-yl)-pyrimidin-2-ylamine]	8 nM

Same assay, conditions: Table 2; [3H] histamine competition binding, membranes of SK-N-MC cells transfected with human H4 receptor; average of results

Ki	SMILES
29 nM	CCOCc1cc(N2CCN(C)CC2)nc(N)n1 [Example 239, 4-Ethyoxymethyl-6-(4-methyl-piperazin-1-yl)-pyrimidin-2-ylamine]
49 nM	Nc1nc(C2CCOC2)cc(N2CCNCC2)n1 (single isomer, unassigned; (+)) [Example 194, (+)-4-piperazin-1-yl-6-(tetrahydro-furan-3-yl)-pyrimidin-2-ylamine]
515 nM	CN[C@@H]1CCN(c2nc(N)nc(C)c2F)C1 [Example 202, (R)-5-Fluoro-4-methyl-6-(3-methylamino-pyrrolidin-1-yl)-pyrimidin-2-ylamine]
2 nM	CCCCc1cc(N2CC[C@@H](NC)C2)nc(N)n1 [Example 137, (R)-4-Butyl-6-(3-methylamino-pyrrolidin-1-yl)-pyrimidin-2-ylamine]
46 nM	COc1c(C2CCCC2)nc(N)nc1N1CCCNCC1 [Example 112, 4-Cyclopentyl-6-[1,4]diazepan-1-yl-5-methoxy-pyrimidin-2-ylamine]
1030 nM	CN(CCN)c1cc(C2CCOCC2)nc(N)n1 [Example 177, N^4-(2-Amino-ethyl)-N^4-methyl-6-(tetrahydro-pyran-4-yl)-pyrimidine-2,4-diamine]
71 nM	CN[C@H]1CCN(c2nc(N)nc(C3CCCC3)c2OC)C1 [Example 114, (S)-4-Cyclopentyl-5-methoxy-6-(3-methylamino-pyrrolidin-1-yl)-pyrimidin-2-ylamine]
81 nM	CN1CCN(c2cc(Cc3ccncc3)nc(N)n2)CC1 [Example 206, 4-(4-Methyl-piperazin-1-yl)-6-pyridin-4-ylmethyl-pyrimidin-2-ylamine]
213 nM	COc1c(C2CCCC2)nc(N)nc1N1CCNCC1 [Example 186, 4-Cyclopentyl-5-methoxy-6-piperazin-1-yl-pyrimidin-2-ylamine]
85 nM	CCc1cc(N2CC[C@H](NC)C2)nc(N)n1 [Example 150, (S)-4-Ethyl-6-(3-methylamino-pyrrolidin-1-yl)-pyrimidin-2-ylamine]
59 nM	NCCNc1cc(C2CCOC2)nc(N)n1 (centres unmarked) [Example 195, N^4-(2-Amino-ethyl)-6-(tetrahydro-furan-3-yl)-pyrimidine-2,4-diamine]
7 nM	CN[C@H]1CCN(c2cc(C(C)C)nc(N)n2)C1 [Example 125, (S)-4-Isopropyl-6-(3-methylamino-pyrrolidin-1-yl)-pyrimidin-2-ylamine]
42 nM	COCc1cc(N2CCCNCC2)nc(N)n1 [Example 117, 4-[1,4]-Diazepan-1-yl-6-methoxymethyl-pyrimidin-2-ylamine]
23 nM	COCc1cc(N2CC[C@@H](N)C2)nc(N)n1 [Example 222, (R)-4-(3-Amino-pyrrolidin-1-yl)-6-methoxymethyl-pyrimidin-2-ylamine]
2 nM	Nc1nc(Cc2ccsc2)cc(N2CCNCC2)n1 [Example 209, 4-piperazin-1-yl-6-thiophen-3-ylmethyl-pyrimidin-2-ylamine]
46 nM	NCCNc1cc(C2Cc3ccccc3C2)nc(N)n1 [Example 168, N^4-(2-Amino-ethyl)-6-indan-2-yl-pyrimidine-2,4-diamine]
9 nM	CC(C)(C)c1cc(N2CC[C@@H](N)C2)nc(N)n1 [Example 127, (R)-4-(3-Amino-pyrrolidin-1-yl)-6-tert-butyl-pyrimidin-2-ylamine]
106 nM	Nc1nc(C2Cc3ccccc3O2)cc(N2CCNCC2)n1 (centres unmarked) [Example 171, 4-(2,3-Dihydro-benzofuran-2-yl)-6-piperazin-1-yl-pyrimidin-2-ylamine]

The remaining lines, values behind:

SMILES	Ki
CN1C[C@@H]2CN(c3cc(Cc4ccc(Cl)cc4)nc(N)n3)C[C@@H]2C1 [Example 236, 4-(4-Chloro-benzyl)-6-(cis-5-methyl-hexahydro-pyrrolo[3,4-c]pyrrol-2-yl)-pyrimidin-2-ylamine]	249 nM
Nc1nc(Cc2cccs2)cc(N2CC3CCCNC3C2)n1 (stereo not drawn) [Example 217, 4-(cis-Octahydro-pyrrolo[3,4-b]pyridin-6-yl)-6-thiophen-2-ylmethyl-pyrimidin-2-ylamine]	9 nM
CC(C)c1cc(N2CCC3(CCCN3)C2)nc(N)n1 (centres unmarked) [Example 91, 4-(1,7-Diaza-spiro[4.4]non-7-yl)-6-isopropyl-pyrimidin-2-ylamine]	84 nM
Nc1nc(CC2CCCO2)cc(N2CC3CCCNC3C2)n1 (stereo not drawn) [Example 231, 4-(cis-Octahydro-pyrrolo[3,4-b]pyridin-6-yl)-6-(tetrahydro-furan-2-ylmethyl)-pyrimidin-2-ylamine]	59 nM
Cc1nc(N)nc(N2CCNCC2)c1F [Example 201, 5-Fluoro-4-methyl-6-piperazin-1-yl-pyrimidin-2-ylamine]	391 nM
Cc1nc(N)nc(N2CCN(C)CC2)c1F [Example 199, 5-Fluoro-4-methyl-6-(4-methyl-piperazin-1-yl)-pyrimidin-2-ylamine]	69 nM
CCCc1cc(N2CCN(C)CC2)nc(N)n1 [Example 144, 4-(4-Methyl-piperazin-1-yl)-6-propyl-pyrimidin-2-ylamine]	6 nM
CCCCc1nc(N)nc(N2CC[C@H](NC)C2)c1OC [Example 107, (S)-4-Butyl-5-methoxy-6-(3-methylamino-pyrrolidin-1-yl)-pyrimidin-2-ylamine]	104 nM
Nc1nc(C2CC2)cc(N2CCNCC2)n1 [Example 121, 4-Cyclopropyl-6-piperazin-1-yl-pyrimidin-2-ylamine]	3 nM
